Source: patent US11173152B1, “Glutathione-coated nanoparticles for delivery of MKT-077 across the blood-brain barrier” (UNIVERSITY OF SOUTH FLORIDA, priority 2015, dated 2021)
Read-outs that look alike come from different tables or passages of the source.

Legend:
[1] = dog, in vivo; cited from earlier work
[2] = human subjects; cited from earlier work
[3] = rat, in vivo; cited from earlier work
[4] = test system: human tau in HeLa cells stably expressing human tau; test: Effect on tau level in a cellular AD model (Western blot); format: cell-based; details: 3 μM, 24 hours, GAPDH normalization
Description: AD model: HeLa cells stably expressing human tau were maintained in OPTIMEM media as described earlier. Treatment with nanoparticles or control were performed for 24 hours and samples analyzed by western blotting, as described earlier.
In order to determine whether the newly formulated MKT-NPs are active, a cellular AD HeLa cell model that stably expresses human tau was used. Cells were treated with 3 μM of MKT uncoated NPs or MKT Glu-NPS or drug in solution or various controls for 24 hours.

[5] = In vitro drug release (dialysis membrane, PBS pH 7.4); format: physicochemical; details: within the initial 4 hours; PBS pH 7.4, 37° C.
Description: The drug release profile of MKT from MKT NPs and MKT Glu-NPs was investigated using a method previously described by the current inventors in [14]. 0.05 mg equivalent of MKT aqueous solution, MKT NPs, and MKT Glu-NPs were placed in dialysis membrane tubing ([…]) and placed in 20 mL of release medium comprised of PBS (pH 7.4) stirring at 100 rpm and 37° C. 1 mL aliquots were removed at predetermined intervals over 7 days and analyzed by UV spectroscopy at wavelength of 492 nm (λmax) and compared to UV absorbance of standard aqueous dilutions of MKT drug (r^2=0.9943).

[6] = test system: TRANSWELL in vitro BBB model, co-culture of RBE4 (rat brain endothelial) cells with C6 (rat astrocytoma) cells; test: In vitro BBB permeation model; format: in vitro ADME; details: end of the 48-hour study period, 10 μM equivalent, n=4
Description: A […] in vitro BBB model was established to study the BBB permeation of MKT NPs and MKT Glu-NPs compared to drug solution according to a method previously described by the current inventors in [18]. […] permeable inserts were treated with 0.1% rat tail collagen I on the apical and basolateral sides. After 24 hours, C6 (rat astrocytoma) cells were seeded onto the basolateral side of the permeable insert (5×10^4 cells). After 48 hours, RBE4 (rat brain endothelial) cells were seeded onto the apical side of the permeable (5×10^4 cells). Cells were bathed in 1:1 mixture of Ham's F10:MEM media supplemented with 10% FBS with 1.5 mL in the basolateral chamber and 0.5 mL in the apical chamber, and were allowed to incubate (37° C. and 5% CO2) for 24 hours until confluence was established.
After 24 hours, media was replaced with a 1:1 mixture of Ham's F10:MEM media supplemented with 1% FBS (experimental media), and cells were treated with 10 μM equivalent treatments of MKT aqueous drug solution, MKT NPs, and MKT Glu-NPs. 1 mL media samples were aliquoted from the basolateral chamber at predetermined intervals over a 48-hour period to investigate the trans-BBB permeation of the treatments. Aliquots were read by UV spectroscopy (at wavelength of 492 nm (λmax) and compared to UV absorbance of standard dilutions of MKT drug in experimental media (r^2=0.9990).

[7] = blockage by the BBB; cited from earlier work

**Q.** Which results are given for `CCn1c(=O)/c(=C2\Sc3ccccc3N2C)s/c1=C\c1cccc[n+]1CC.[Cl-]` [MKT-077]?
**A.** renal toxicity [1]: irreversible renal toxicity; renal toxicity [2]: irreversible renal toxicity; renal toxicity [3]: irreversible renal toxicity; reduction in tau levels [4]: greater and comparable reduction in tau levels; drug released [5]: Approximately 100%; drug permeated through the BBB model [6]: 20%; brain permeation [7]: limited-to-no brain permeation
